Experimental data as given in US20230017045A1, “PYRIDINE AND PYRIMIDINE CARBOXYLATE HERBICIDES AND METHODS OF USE THEREOF” (Dow AgroSciences LLC, priority 2017, published 2023).
Where two headings read alike, the source gives them in different places.

System: test plant species
Assay: Post-emergent herbicidal activity test (greenhouse, foliar spray, visual growth reduction)
Assay type: in vivo
Conditions: post-emergence, 336 h, 140 g ai/ha
Method in brief: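 Greenhouse plants at first–second true leaf stage sprayed overhead at 187 L/ha with compound in acetone/water/isopropanol/DMSO/crop oil/X-77 carrier; controls received solvent blank. Injury rated visually after 14 d on a 0–100% scale versus untreated and control plants, converted to growth reduction.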

[1] = ECHCG: barnyardgrass (Echinochloa crus-galli), 14 days after application, read-out: Visual Growth Reduction (%) 14 Days After Application, ECHCG
[2] = IPOHE: ivy-leaf morning glory (Ipomoea hederacea), 14 days after application, read-out: Visual Growth Reduction (%) 14 Days After Application, IPOHE
[3] = KCHSC: kochia (Bassia scoparia), 14 days after application, read-out: Visual Growth Reduction (%) 14 Days After Application, KCHSC
[4] = ORYSA: rice (Oryza sativa), 14 days after application, read-out: Visual Growth Reduction (%) 14 Days After Application, ORYSA
[5] = SETFA: giant foxtail (Setaria faberi), 14 days after application, read-out: Visual Growth Reduction (%) 14 Days After Application, SETFA
[6] = SORVU: grain sorghum (Sorghum vulgare), 14 days after application, read-out: Visual Growth Reduction (%) 14 Days After Application, SORVU
[7] = STEME: common chickweed (Stellaria media), 14 days after application, read-out: Visual Growth Reduction (%) 14 Days After Application, STEME
[8] = TRZAS: wheat, spring (Triticum aestivum), 14 days after application, read-out: Visual Growth Reduction (%) 14 Days After Application, TRZAS
[9] = blackgrass (Alopecurus myosuroides), 14 Days After Application, read-out: Visual Growth Reduction (%) ALOMY
[10] = canada thistle (Cirsium arvense), 14 Days After Application, read-out: Visual Growth Reduction (%) CIRAR
[11] = crabgrass (Digitaria sanguinalis), 14 Days After Application, read-out: Visual Growth Reduction (%) DIGSA
[12] = lambsquarters (Chenopodium album), 14 Days After Application, read-out: Visual Growth Reduction (%) CHEAL
[13] = redroot pigweed (Amaranthus retroflexus), 14 Days After Application, read-out: Visual Growth Reduction (%) AMARE
[14] = wild oat (Avena fatua), 14 Days After Application, read-out: Visual Growth Reduction (%) AVEFA
[15] = yellow nutsedge (Cyperus esculentus), 14 Days After Application, read-out: Visual Growth Reduction (%) CYPES
[16] = ALOMY: blackgrass (Alopecurus myosuroides), 14 days after application, read-out: Visual Growth Reduction (%) 14 Days After Application, ALOMY
[17] = AMARE: redroot pigweed (Amaranthus retroflexus), 14 days after application, read-out: Visual Growth Reduction (%) 14 Days After Application, AMARE
[18] = AVEFA: wild oat (Avena fatua), 14 days after application, read-out: Visual Growth Reduction (%) 14 Days After Application, AVEFA
[19] = CHEAL: lambsquarters (Chenopodium album), 14 days after application, read-out: Visual Growth Reduction (%) 14 Days After Application, CHEAL
[20] = CIRAR: canada thistle (Cirsium arvense), 14 days after application, read-out: Visual Growth Reduction (%) 14 Days After Application, CIRAR
[21] = CYPES: yellow nutsedge (Cyperus esculentus), 14 days after application, read-out: Visual Growth Reduction (%) 14 Days After Application, CYPES
[22] = DIGSA: crabgrass (Digitaria sanguinalis), 14 days after application, read-out: Visual Growth Reduction (%) 14 Days After Application, DIGSA

| Compound | pest or weed control at 140 g/ha [1] | pest or weed control at 140 g/ha [2] | pest or weed control at 140 g/ha [3] | pest or weed control at 140 g/ha [4] | pest or weed control at 140 g/ha [5] | pest or weed control at 140 g/ha [6] | pest or weed control at 140 g/ha [7] | pest or weed control at 140 g/ha [8] | pest or weed control at 140 g/ha [9] | pest or weed control at 140 g/ha [10] | pest or weed control at 140 g/ha [11] | pest or weed control at 140 g/ha [12] | pest or weed control at 140 g/ha [13] | pest or weed control at 140 g/ha [14] | pest or weed control at 140 g/ha [15] | pest or weed control at 140 g/ha [16] | pest or weed control at 140 g/ha [17] | pest or weed control at 140 g/ha [18] | pest or weed control at 140 g/ha [19] | pest or weed control at 140 g/ha [20] | other results |
| --- | --- | --- | --- | --- | --- | --- | --- | --- | --- | --- | --- | --- | --- | --- | --- | --- | --- | --- | --- | --- | --- |
| COC(=O)c1nc(-c2cc(C)c(C(F)(F)F)cc2F)ccc1Cl [F361, Methyl 3-chloro-6-(2-fluoro-5-methyl-4-(trifluoromethyl)phenyl)picolinate] | 0 to 29% | 75 to 84% | 0 to 29% | 0 to 29% | 0 to 29% | 0 to 29% | 0 to 29% | 0 to 29% | 0 to 29% | 0 to 29% | 0 to 29% | 85 to 94% | 45 to 59% | 0 to 29% | 0 to 29% |  |  |  |  |  |  |
| COC(=O)c1nc(-c2cc(Cl)c(C(F)(F)F)cc2C)ccc1Cl [F371, Methyl 3-chloro-6-(5-chloro-2-methyl-4-(trifluoromethyl)phenyl)picolinate] | 0 to 29% | 95 to 100% | 0 to 29% | 0 to 29% | 0 to 29% | 75 to 84% | 0 to 29% | 0 to 29% | 0 to 29% | 0 to 29% | 45 to 59% | 30 to 44% | 30 to 44% | 0 to 29% | 0 to 29% |  |  |  |  |  |  |
| COC(=O)c1nc(-c2cccc3c2OC(F)(F)O3)c(F)cc1Cl [F256, Methyl 3-chloro-6-(2,2-difluorobenzo[d][1,3]dioxol-4-yl)-5-fluoropicolinate] | 0 to 29% | 0 to 29% | 0 to 29% | 0 to 29% | 0 to 29% | 0 to 29% | 0 to 29% | 0 to 29% | 0 to 29% | 0 to 29% | 0 to 29% | 0 to 29% | 0 to 29% | 0 to 29% | 0 to 29% |  |  |  |  |  |  |
| COC(=O)c1nc(-c2cc(SC)c(C(F)(F)F)cc2Cl)c(F)cc1Cl [F332, Methyl 3-chloro-6-(2-chloro-5-(methylthio)-4-(trifluoromethyl)phenyl) 5-fluoropicolinate] | 0 to 29% | 0 to 29% | 30 to 44% | 0 to 29% | 0 to 29% | 0 to 29% | 0 to 29% | 0 to 29% | 0 to 29% |  | 0 to 29% | 0 to 29% | 0 to 29% | 0 to 29% | 0 to 29% |  |  |  |  |  |  |
| COC(=O)c1nc(-c2ccc(I)cc2)c(F)cc1Cl [F100, Methyl 3-chloro-5-fluoro-6-(4-iodophenyl) picolinate] | 0 to 29% | 30 to 44% | 0 to 29% | 0 to 29% | 0 to 29% | 30 to 44% | 0 to 29% | 0 to 29% |  |  |  |  |  |  |  | 0 to 29% | 0 to 29% | 0 to 29% | 0 to 29% | 45 to 59% | pest or weed control at 140 g/ha [21]: 30 to 44%; pest or weed control at 140 g/ha [22]: 0 to 29% |
| COC(=O)c1nc(-c2ccc(C(F)(F)F)c(SC)c2Cl)ccc1Cl [F121, methyl 3-chloro-6-(2-chloro-3-(methylthio)-4-(trifluoromethyl)phenyl)picolinate] | 0 to 29% | 0 to 29% | 0 to 29% | 0 to 29% | 0 to 29% | 0 to 29% | 0 to 29% | 0 to 29% |  |  |  |  |  |  |  | 0 to 29% | 30 to 44% | 0 to 29% | 0 to 29% | 0 to 29% | pest or weed control at 140 g/ha [21]: 0 to 29%; pest or weed control at 140 g/ha [22]: 0 to 29% |
| COC(=O)c1nc(-c2ccc(C(C)=O)cc2Cl)ccc1Cl [F26, methyl 6-(4-acetyl-2-chlorophenyl)-3-chloropicolinate] | 0 to 29% | 0 to 29% | 0 to 29% | 0 to 29% | 0 to 29% | 0 to 29% | 0 to 29% | 0 to 29% |  |  |  |  |  |  |  | 0 to 29% | 0 to 29% | 0 to 29% | 0 to 29% | 0 to 29% | pest or weed control at 140 g/ha [21]: 0 to 29%; pest or weed control at 140 g/ha [22]: 0 to 29% |
| COC(=O)c1nc(-c2ccc(C3(C#N)CC3)cc2Cl)ccc1Cl [F236, Methyl 3-chloro-6-(2-chloro-4-(1-cyanocyclopropyl)phenyl)picolinate] | 0 to 29% | 95 to 100% | 75 to 84% | 0 to 29% | 75 to 84% | 75 to 84% | 45 to 59% | 0 to 29% | 0 to 29% | 85 to 94% | 75 to 84% | 85 to 94% | 30 to 44% | 0 to 29% | 0 to 29% |  |  |  |  |  |  |
| COc1cc(-c2nc(C(=O)O)c(Cl)cc2F)c(Cl)cc1C(F)(F)F [F337, 3-Chloro-6-(2-chloro-5-methoxy-4-(trifluoromethyl)phenyl)-5-fluoropicolinic acid] | 60 to 74% | 95 to 100% | 85 to 94% | 0 to 29% | 85 to 94% | 75 to 84% | 0 to 29% | 30 to 44% | 0 to 29% |  | 45 to 59% | 75 to 84% | 30 to 44% | 0 to 29% | 0 to 29% |  |  |  |  |  |  |
| COC(=O)c1nc(-c2cc(F)c(C(F)(F)F)cc2OC)c(F)cc1Cl [F359, Methyl 3-chloro-5-fluoro-6-(5-fluoro-2-methoxy-4-(trifluoromethyl)phenyl)picolinate] | 95 to 100% | 95 to 100% | 85 to 94% | 0 to 29% | 95 to 100% | 85 to 94% | 0 to 29% | 60 to 74% | 30 to 44% | 75 to 84% | 30 to 44% | 95 to 100% | 95 to 100% | 75 to 84% | 0 to 29% |  |  |  |  |  |  |
